Measurements reported in PubChem BioAssay AID180 (DTP/NCI, 2004).
Where “and” joins values, the source holds several entries; their conditions need not be identical. Equal entries are not always repeated.

System: BDF1 mice, Adenocarcinoma 755 s.c., tumor weight T/C
Assay: NCI In Vivo Anticancer Drug Screen. Data for tumor model Adenocarcinoma 755 (subcutaneous) in B6D2F1 (BDF1) mice
Conditions: endpoint: mean tumor weight, higher = larger tumour
Outline: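 Readout: T/C, i.e. treated-group measurement over vehicle-control measurement. Endpoint is survival or tumor size in tumor-bearing mice given compound.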

[1] = dose: 30.0 mg/kg/injection, schedule: Q01DX011 (ip), vehicle: carboxymethylcellulose (CMC)
[2] = dose: 120.0 mg/kg/injection, schedule: Q01DX011 (ip), vehicle: carboxymethylcellulose (CMC)
[3] = dose: 12.0 mg/kg/injection, schedule: Q01DX011 (ip), vehicle: carboxymethylcellulose (CMC)
[4] = dose: 50.0 mg/kg/injection, schedule: Q01DX011 (ip), vehicle: carboxymethylcellulose (CMC)
[5] = dose: 60.0 mg/kg/injection, schedule: Q01DX011 (ip), vehicle: carboxymethylcellulose (CMC)
[6] = dose: 12.5 mg/kg/injection, schedule: Q01DX011 (ip), vehicle: methylcellulose (MC)
[7] = dose: 400.0 mg/kg/injection, schedule: Q01DX011 (ip), vehicle: methylcellulose (MC)

Compound: Nc1nsnc1C(=O)O
- T/C (dose: 93.0 mg/kg/injection, schedule: Q01DX011 (ip), vehicle: carboxymethylcellulose (CMC)): 80 % of control
- T/C (dose: 187.0 mg/kg/injection, schedule: Q01DX011 (ip), vehicle: carboxymethylcellulose (CMC)): 98 % of control

Compound: CC(C)CCCCCCCCCCCCC(=O)NCC(=O)NC1C(O)C(O)C(Nc2ncnc3nc[nH]c23)OC1C(O)CO (centres undefined)
- T/C (dose: 0.11 mg/kg/injection, schedule: Q## X000 (ip), vehicle: carboxymethylcellulose (CMC)): 62 % of control
- T/C (dose: 0.22 mg/kg/injection, schedule: Q01DX011 (ip), vehicle: carboxymethylcellulose (CMC)): 65 % of control
- T/C (dose: 0.22 mg/kg/injection, schedule: Q## X000 (ip), vehicle: carboxymethylcellulose (CMC)): 41 % of control
- T/C (dose: 0.45 mg/kg/injection, schedule: Q01DX011 (ip), vehicle: carboxymethylcellulose (CMC)): 29 % of control
- T/C (dose: 0.45 mg/kg/injection, schedule: Q## X000 (ip), vehicle: carboxymethylcellulose (CMC)): 12 % of control
- T/C (dose: 0.9 mg/kg/injection, schedule: Q01DX011 (ip), vehicle: carboxymethylcellulose (CMC)): 5 % of control

Compound: O=P(N1CC=CCC1)(N1CC1)N1CC1
- T/C (dose: 0.03 mg/kg/injection, schedule: Q01DX011 (ip), vehicle: saline): 75 % of control
- T/C (dose: 0.05 mg/kg/injection, schedule: Q01DX011 (ip), vehicle: saline): 81 % of control
- T/C (dose: 0.1 mg/kg/injection, schedule: Q01DX011 (ip), vehicle: saline): 114 % of control
- T/C (dose: 0.2 mg/kg/injection, schedule: Q01DX011 (ip), vehicle: saline): 100 % of control
- T/C (dose: 25.0 micrograms/kg/injection, schedule: Q01DX011 (ip), vehicle: saline): 120 % of control
- T/C (dose: 50.0 micrograms/kg/injection, schedule: Q01DX011 (ip), vehicle: saline): 94 % of control
- T/C (dose: 100.0 micrograms/kg/injection, schedule: Q01DX011 (ip), vehicle: saline): 114 % of control
- T/C (dose: 200.0 micrograms/kg/injection, schedule: Q01DX011 (ip), vehicle: saline): 106 % of control

Compound: CC(=O)NNC(=O)c1ccccn1
- T/C (dose: 75.0 mg/kg/injection, schedule: Q01DX011 (ip), vehicle: water): 68 % of control
- T/C (dose: 100.0 mg/kg/injection, schedule: Q01DX011 (ip), vehicle: water): 37 % of control

Compound: C/C(=N\NC(=O)c1ccncc1)c1ccc(Cl)cc1Cl
- T/C (dose: 30.0 mg/kg/injection, schedule: Q01DX011 (ip), vehicle: methylcellulose (MC)): 41 % of control
- T/C (dose: 60.0 mg/kg/injection, schedule: Q01DX011 (ip), vehicle: methylcellulose (MC)): 58 % of control

Compound: Nc1nc2c(ccn2Cc2ccccc2)c(=O)[nH]1
- T/C [1]: 92 % of control
- T/C [2]: 106 % of control

Compound: CC(=O)Nc1c(Cl)c(Cl)c2c(c1Cl)Cc1cc(Br)ccc1-2
- T/C [3]: 30 % of control
- T/C (dose: 25.0 mg/kg/injection, schedule: Q01DX011 (ip), vehicle: carboxymethylcellulose (CMC)): 41 % of control

Compound: [Br][Hg][CH2]C1COC([CH2][Hg][Br])CO1 (centres undefined)
- T/C (dose: 6.0 mg/kg/injection, schedule: Q01DX011 (ip), vehicle: carboxymethylcellulose (CMC)): 101 % of control
- T/C [3]: 60 % of control
- T/C [4]: 27 % of control

Compound: CSc1ncc(Br)c(Nc2ccc(C)cc2)n1
- T/C (dose: 15.0 mg/kg/injection, schedule: Q01DX011 (ip), vehicle: methylcellulose (MC)): 75 % of control
- T/C (dose: 31.0 mg/kg/injection, schedule: Q01DX011 (ip), vehicle: methylcellulose (MC)): 74 % of control
- T/C (dose: 62.0 mg/kg/injection, schedule: Q01DX011 (ip), vehicle: methylcellulose (MC)): 75 % of control
- T/C (dose: 125.0 mg/kg/injection, schedule: Q01DX011 (ip), vehicle: methylcellulose (MC)): 92 % of control
- T/C (dose: 250.0 mg/kg/injection, schedule: Q01DX011 (ip), vehicle: methylcellulose (MC)): 68 % of control

Compound: Nc1nc2ncc(CNc3ccc(C(=O)NC(CCC(=O)O)C(=O)O)cc3)nc2c(=O)[nH]1 (centres undefined)
- T/C (dose: 6.95 mg/kg/injection, schedule: Q01DX011 (ip), vehicle: carboxymethylcellulose (CMC)): 78 % of control
- T/C (dose: 13.9 mg/kg/injection, schedule: Q01DX011 (ip), vehicle: carboxymethylcellulose (CMC)): 77 % of control
- T/C (dose: 17.38 mg/kg/injection, schedule: Q01DX011 (ip), vehicle: carboxymethylcellulose (CMC)): 221 % of control and 79 % of control
- T/C (dose: 22.24 mg/kg/injection, schedule: Q01DX011 (ip), vehicle: carboxymethylcellulose (CMC)): 63 % of control
- T/C (dose: 27.8 mg/kg/injection, schedule: Q01DX011 (ip), vehicle: carboxymethylcellulose (CMC)): 52 % of control and 60 % of control and 75 % of control
- T/C (dose: 34.75 mg/kg/injection, schedule: Q01DX011 (ip), vehicle: carboxymethylcellulose (CMC)): 65 % of control
- T/C (dose: 40.0 mg/kg/injection, schedule: Q01DX011 (ip), vehicle: carboxymethylcellulose (CMC)): 70 % of control
- T/C [4]: 50 % of control
- T/C (dose: 55.6 mg/kg/injection, schedule: Q01DX011 (ip), vehicle: carboxymethylcellulose (CMC)): 33 % of control and 55 % of control
- T/C [5]: 27 % of control
- T/C (dose: 65.0 mg/kg/injection, schedule: Q01DX011 (ip), vehicle: carboxymethylcellulose (CMC)): 68 % of control

Compound: c1ccc2c(c1)ccc1cc3c(ccc4ccccc43)cc12
- T/C [6]: 24 % of control
- T/C (dose: 25.0 mg/kg/injection, schedule: Q01DX011 (ip), vehicle: methylcellulose (MC)): 44 % of control
- T/C (dose: 25.0 mg/kg/injection, schedule: Q01DX011 (ip), vehicle: other): 60 % of control
- T/C (dose: 50.0 mg/kg/injection, schedule: Q01DX011 (ip), vehicle: other): 42 % of control
- T/C (dose: 100.0 mg/kg/injection, schedule: Q01DX011 (ip), vehicle: other): 36 % of control
- T/C [7]: 24 % of control and 25 % of control
- T/C (dose: 600.0 mg/kg/injection, schedule: Q01DX011 (ip), vehicle: methylcellulose (MC)): 31 % of control
- T/C (dose: 600.0 mg/kg/injection, schedule: Q01DX011 (ip), vehicle: other): 12 % of control

Compound: Nc1ncnc2c1cnn2CCCl
- T/C (dose: 1.5 mg/kg/injection, schedule: Q01DX011 (ip), vehicle: methylcellulose (MC)): 79 % of control
- T/C (dose: 1.5 mg/kg/injection, schedule: Q01DX011 (ip), vehicle: saline): 104 % of control
- T/C (dose: 3.1 mg/kg/injection, schedule: Q01DX011 (ip), vehicle: methylcellulose (MC)): 31 % of control
- T/C (dose: 3.1 mg/kg/injection, schedule: Q01DX011 (ip), vehicle: saline): 90 % of control
- T/C (dose: 4.0 mg/kg/injection, schedule: Q01DX011 (ip), vehicle: carboxymethylcellulose (CMC)): 50 % of control and 65 % of control
- T/C (dose: 6.2 mg/kg/injection, schedule: Q01DX011 (ip), vehicle: methylcellulose (MC)): 26 % of control and 33 % of control
- T/C (dose: 6.2 mg/kg/injection, schedule: Q01DX011 (ip), vehicle: saline): 73 % of control
- T/C [6]: 9 % of control
- T/C (dose: 12.5 mg/kg/injection, schedule: Q01DX011 (ip), vehicle: saline): 25 % of control
- T/C (dose: 16.0 mg/kg/injection, schedule: Q01DX011 (ip), vehicle: carboxymethylcellulose (CMC)): 35 % of control

Compound: Cn1c(=O)c2c(nc(N/N=C/c3cccc(Br)c3)n2C)n(C)c1=O
- T/C [1]: 93 % of control
- T/C [5]: 111 % of control
- T/C [2]: 88 % of control

Compound: CC(C)Cn1cnc2c(SCc3ccccc3F)nc(N)nc21
- T/C (dose: 18.75 mg/kg/injection, schedule: Q01DX011 (ip), vehicle: methylcellulose (MC)): 80 % of control
- T/C (dose: 37.5 mg/kg/injection, schedule: Q01DX011 (ip), vehicle: methylcellulose (MC)): 65 % of control
- T/C (dose: 150.0 mg/kg/injection, schedule: Q01DX011 (ip), vehicle: methylcellulose (MC)): 28 % of control

Compound: Nc1nc(SCc2ccccc2[N+](=O)[O-])c2[nH]cnc2n1
- T/C (dose: 3.7 mg/kg/injection, schedule: Q01DX011 (ip), vehicle: carboxymethylcellulose (CMC)): 95 % of control
- T/C (dose: 7.5 mg/kg/injection, schedule: Q01DX011 (ip), vehicle: carboxymethylcellulose (CMC)): 90 % of control
- T/C (dose: 15.0 mg/kg/injection, schedule: Q01DX011 (ip), vehicle: carboxymethylcellulose (CMC)): 68 % of control
- T/C [1]: 67 % of control
- T/C (dose: 37.5 mg/kg/injection, schedule: Q01DX011 (ip), vehicle: carboxymethylcellulose (CMC)): 2 % of control
- T/C (dose: 75.0 mg/kg/injection, schedule: Q01DX011 (ip), vehicle: carboxymethylcellulose (CMC)): 1 % of control
- T/C (dose: 300.0 mg/kg/injection, schedule: Q01DX011 (ip), vehicle: carboxymethylcellulose (CMC)): 4 % of control

Compound: CCOC(=O)C(C)(C)Br
- T/C (dose: 50.0 mg/kg/injection, schedule: Q01DX011 (ip), vehicle: methylcellulose (MC)): 85 % of control
- T/C (dose: 100.0 mg/kg/injection, schedule: Q01DX011 (ip), vehicle: methylcellulose (MC)): 107 % of control
- T/C (dose: 200.0 mg/kg/injection, schedule: Q01DX011 (ip), vehicle: methylcellulose (MC)): 47 % of control
- T/C [7]: 18 % of control
- T/C (dose: 500.0 mg/kg/injection, schedule: Q01DX011 (ip), vehicle: methylcellulose (MC)): 13 % of control
